In patent publication US6417174B1, “Inhibitors of β-lactamases and uses therefor” (Northwestern University, priority 1997, dated 2002):
Like-named read-outs stand apart in the source and are kept apart here.

What was measured:
[1] = system: E. coli RYC1000 harboring plasmid pBGAmpC-MHN (AmpC β-lactamase of Enterobacter cloacae); assay: microbe, parasite or virus in culture; type: cell-based, Escherichia coli; conditions: for MIC of ceftazidime plus inhibitor: Table 3A, proportion 4/1, given as CAZ/inhibitor; for MIC of ceftazidime plus inhibitor / MIC of inhibitor used alone without ceftazidime: AmpC-MHN; for MIC of inhibitor used alone without ceftazidime: Table 3B; for MIC of amoxicillin plus inhibitor: Table 4A, EC-AmpCEn, proportion 4/1; for MIC of inhibitor used alone without amoxicillin: Table 4B, ECAmpCEn, not tested above 128 μg/ml, “256” indicates no inhibition of cell growth; as to MIC of ceftazidime plus inhibitor: values in µg/ml
Description: (§1) After incubation, the growth of the cells was visually inspected. The minimum inhibitory concentration (MIC) is the lowest concentration where there no cell growth was observed.
(§2) The following strains were used: Enterobacter cloacae cell line with derepressed β-lactamase production (Ent-Der), and Escherichia coli RYC1000 (araD139 D lacU169 rpsL D rib7 thiA gyrA recA56) cell lines, harboring the plasmid pBGS19 (with no β-lactamase), or the β-lactamase containing plasmids pBGAmpC (AmpC β-lactamase from E. coli; Eco-AmpC), or pBGAmpC-MHN (AmpC β-lactamase from Enterobacter cloacae; Eco-AmpCEnt). […] TEM-10 and TEM-24 differ from TEM-1 due to the following point substitutions: TEM-10 (R164S, E240K); TEM-24 (L102K, L162S, S235T, A237K). TEM-10 and TEM-24 also differ from TEM-1 in being extended spectrum enzymes (i.e., they react with a greater range of substrates than TEM-1). Also tested were clinical isolates of Pseudomonas aeruginosa. All bacterial strains and plasmids are available from Jesus Blazquez and Fernando Baquero, Servicio de Microbiologia, Hospital Ramon y Cajal, National Institute of Health, Madrid, Spain.
(§3) Several ratios, including 1:1, 2:1, 4:1, and 1:3, of β-lactam antibiotic (amoxicillin (AX) or ceftazidime (CAZ)) to boronic acid compound were used in the assays. Tazobactam (TAZO), a clinically used β-lactamase inibitor, was used as a positive control.

[2] = system: E. coli RYC1000 harboring pBGAmpC-E. coli producing AmpC (ECR-AmpCEc); assay: microbe, parasite or virus in culture; type: cell-based, Escherichia coli; conditions: ECR-AmpCEc; for MIC of amoxicillin plus inhibitor: Table 4A, proportion 4/1; for MIC of inhibitor used alone without amoxicillin: Table 4B, not tested above 128 μg/ml, “256” indicates no inhibition of cell growth
Description: as §1, §2, §3

[3] = system: E. coli RYC1000 harboring a plasmid coding for a mutant of AmpC from Enterobacter (ECR-AmpCEnM); assay: microbe, parasite or virus in culture; type: cell-based, Escherichia coli; conditions: for MIC of amoxicillin plus inhibitor: Table 4A, ECR-AmpCEnM, proportion 4/1; for MIC of inhibitor used alone without amoxicillin: Table 4B, ECRAmpCEnM, not tested above 128 μg/ml, “256” indicates no inhibition of cell growth
Description: as §1, §2, §3

[4] = system: E. coli RYC1000 harboring pBGTEM-10 producing TEM-10 β-lactamase (EC-T10); assay: microbe, parasite or virus in culture; type: cell-based, Escherichia coli; conditions: EC-T10; for MIC of amoxicillin plus inhibitor: Table 4A, proportion 4/1; for MIC of inhibitor used alone without amoxicillin: Table 4B, not tested above 128 μg/ml, “256” indicates no inhibition of cell growth
Description: as §1, §2, §3

[5] = system: E. coli RYC1000 harboring plasmid pBGS19 (no β-lactamase); assay: microbe, parasite or virus in culture; type: cell-based, Escherichia coli; conditions: for MIC of ceftazidime plus inhibitor: Table 3A, proportion 4/1; for MIC of ceftazidime plus inhibitor / MIC of inhibitor used alone without ceftazidime: pBGS19; for MIC of inhibitor used alone without ceftazidime: Table 3B; for MIC of inhibitor used alone without amoxicillin: Table 4B, EC, not tested above 128 μg/ml, “256” indicates no inhibition of cell growth
Description: as §1, §2, §3

[6] = system: E. coli RYC1000 harboring plasmid pBGTEM-24 (TEM-24 β-lactamase); assay: microbe, parasite or virus in culture; type: cell-based, Escherichia coli; conditions: for MIC of ceftazidime plus inhibitor: Table 3A, proportion 4/1, given as CAZ/inhibitor; for MIC of inhibitor used alone without ceftazidime: Table 3B; as to MIC of ceftazidime plus inhibitor: values in µg/ml
Description: as §1, §2, §3

[7] = system: E. coli RYC1000 harboring pBGTEM-1 producing TEM-1 β-lactamase (EC-T1); assay: microbe, parasite or virus in culture; type: cell-based, Escherichia coli; conditions: EC-T1; for MIC of amoxicillin plus inhibitor: Table 4A, proportion 4/1; for MIC of inhibitor used alone without amoxicillin: Table 4B, not tested above 128 μg/ml, “256” indicates no inhibition of cell growth
Description: as §1, §2, §3

[8] = biological target: AmpC β-lactamase from E. coli (Escherichia coli, UniProt P00811); assay: biochemical; type: biochemical
Chain of AmpC β-lactamase from E. coli (P00811 20-377): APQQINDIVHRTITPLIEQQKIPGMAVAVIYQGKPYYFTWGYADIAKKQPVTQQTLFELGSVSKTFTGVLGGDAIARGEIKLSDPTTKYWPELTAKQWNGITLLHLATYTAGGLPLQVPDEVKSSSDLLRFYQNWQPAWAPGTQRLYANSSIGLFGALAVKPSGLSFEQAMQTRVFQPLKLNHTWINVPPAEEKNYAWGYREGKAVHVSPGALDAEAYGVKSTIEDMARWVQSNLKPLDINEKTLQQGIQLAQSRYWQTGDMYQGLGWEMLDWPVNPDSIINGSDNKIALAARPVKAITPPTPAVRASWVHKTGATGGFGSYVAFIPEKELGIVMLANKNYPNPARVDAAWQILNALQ

[9] = system: β-lactamase derepressed strain of Enterobacter cloacae (Ent-Der); assay: microbe, parasite or virus in culture; type: cell-based; conditions: for MIC of ceftazidime plus inhibitor: Table 3A, proportion 4/1, given as CAZ/inhibitor; for MIC of ceftazidime plus inhibitor / MIC of inhibitor used alone without ceftazidime: Ent. Der.; for MIC of inhibitor used alone without ceftazidime: Table 3B; for MIC of amoxicillin plus inhibitor: Table 4A, proportion 4/1; for MIC of amoxicillin plus inhibitor / MIC of inhibitor used alone without amoxicillin: Ent-Der.; for MIC of inhibitor used alone without amoxicillin: Table 4B, not tested above 128 μg/ml, “256” indicates no inhibition of cell growth; as to MIC of ceftazidime plus inhibitor: values in µg/ml
Description: as §1, §2, §3

[10] = biological target: T1, TEM-1 β-lactamase from E. coli (Escherichia coli, UniProt P62593); assay: Inhibition of TEM-1 β-lactamase, spectrophotometric assay (FAP substrate); type: biochemical
T1 construct: gift: Natalie Strynadka, University of Alberta
T1 sequence (P62593 24-286 limits assumed): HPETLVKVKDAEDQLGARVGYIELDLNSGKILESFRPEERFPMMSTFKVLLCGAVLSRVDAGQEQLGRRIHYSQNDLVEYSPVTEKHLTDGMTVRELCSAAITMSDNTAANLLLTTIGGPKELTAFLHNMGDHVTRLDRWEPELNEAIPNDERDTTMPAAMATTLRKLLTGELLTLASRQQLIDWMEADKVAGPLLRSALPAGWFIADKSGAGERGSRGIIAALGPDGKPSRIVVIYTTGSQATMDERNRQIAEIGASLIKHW

[11] = system: Citrobacter freundii derrepressed (clinical isolate); assay: Antibacterial activity, wider range of bacteria; type: cell-based; conditions: Table 6
Description: (§4) Bacterial cell culture testing was performed and interpreted following the guidelines of the National Committee for Clinical Laboratory Standards (National Committee for Clinical Laboratory Standards. Methods for Dilution Antimicrobial Susceptibility Tests for Bacteria that Grow Aerobically. Approved Standard M7-A3. National Committee for Clinical Laboratory Standards, Villanova, Pa. 1993). After incubation, the growth of the cells was visually inspected. The minimum inhibitory concentration (MIC) is the lowest concentration where there no cell growth was observed.
(§5) All bacterial strains and plasmids are available from Jesus Blazquez and Fernando Baquero, Servicio de Microbiologia, Hospital Ramon y Cajal National Institute of Health, Madrid, Spain.

[12] = system: Enterobacter cloacae derrepressed (clinical isolate); assay: Antibacterial activity, wider range of bacteria; type: cell-based; conditions: Table 6
Description: as §4, §5

[13] = system: E. coli derrepr. (clinical isolate); assay: Antibacterial activity, wider range of bacteria; type: cell-based; conditions: Table 6
Description: as §4, §5

[14] = system: Pseudomonas aeruginosa-1 (clinical isolate); assay: Antibacterial activity, wider range of bacteria; type: cell-based; conditions: Table 6
Description: as §4, §5

[15] = system: Ps. aeruginosa-3 (clinical isolate); assay: Antibacterial activity, wider range of bacteria; type: cell-based, Pseudomonas aeruginosa; conditions: Table 6
Description: as §4, §5

[16] = system: Ps. aeruginosa-2 (clinical isolate); assay: Antibacterial activity, wider range of bacteria; type: cell-based, Pseudomonas aeruginosa; conditions: Table 6
Description: as §4, §5

[17] = Tables 2A/2B, pH 7.0, 25° C., 100 μM cephalothin, read-out: Ki E. coli AmpC
[18] = Tables 2A/2B, pH 7.0, 25° C., 100 μM FAP, N.I. = no inhibition observed at an inhibitor concentration of 100 μM, read-out: Ki E. coli TEM-1

OB(O)c1cc2ccccc2c2ccccc12 [9PHNB, 9-Phenanthreneboronic acid]
MIC of ceftazidime plus inhibitor [1]: 8/2 | MIC of inhibitor used alone without ceftazidime [1]: 256 µg/mL | MIC of amoxicillin plus inhibitor [1]: 256 µg/mL | MIC of inhibitor used alone without amoxicillin [1]: 256 µg/mL | MIC of amoxicillin plus inhibitor [2]: 512 µg/mL | MIC of inhibitor used alone without amoxicillin [2]: 256 µg/mL | MIC of amoxicillin plus inhibitor [3]: 64 µg/mL | MIC of inhibitor used alone without amoxicillin [3]: 256 µg/mL | MIC of amoxicillin plus inhibitor [4]: 512 µg/mL | MIC of inhibitor used alone without amoxicillin [4]: 256 µg/mL | MIC of ceftazidime plus inhibitor [5]: <0.25 µg/mL | MIC of inhibitor used alone without ceftazidime [5]: 128 µg/mL | MIC of inhibitor used alone without amoxicillin [5]: 256 µg/mL | MIC of ceftazidime plus inhibitor [6]: 256/64 | MIC of inhibitor used alone without ceftazidime [6]: 128 µg/mL | MIC of amoxicillin plus inhibitor [7]: 512 µg/mL | MIC of inhibitor used alone without amoxicillin [7]: 256 µg/mL | Ki [8, 17]: 12.6 µM | dissociation constant relative to MAPB (AmpC) ([8]; compared with MAPB): two to three-fold worse (higher) | MIC of ceftazidime plus inhibitor [9]: 512/128 | MIC of inhibitor used alone without ceftazidime [9]: >512 µg/mL | MIC of amoxicillin plus inhibitor [9]: 512 µg/mL | MIC of inhibitor used alone without amoxicillin [9]: 256 µg/mL | Ki [10, 18]: 31 µM

OB(O)c1ccc(-c2ccc(B(O)O)cc2)cc1 [BIPD, 4,4′-biphenyldiboronic acid]
MIC of ceftazidime plus inhibitor [1]: 8/2 | MIC of inhibitor used alone without ceftazidime [1]: >256 µg/mL | MIC of amoxicillin plus inhibitor [1]: 128 µg/mL | MIC of inhibitor used alone without amoxicillin [1]: 256 µg/mL | MIC of amoxicillin plus inhibitor [2]: 128 µg/mL | MIC of inhibitor used alone without amoxicillin [2]: 128 µg/mL | MIC of amoxicillin plus inhibitor [3]: 128 µg/mL | MIC of inhibitor used alone without amoxicillin [3]: 256 µg/mL | MIC of amoxicillin plus inhibitor [4]: 256 µg/mL | MIC of inhibitor used alone without amoxicillin [4]: 256 µg/mL | MIC of ceftazidime plus inhibitor [5]: <0.12 µg/mL | MIC of inhibitor used alone without ceftazidime [5]: >256 µg/mL | MIC of inhibitor used alone without amoxicillin [5]: 256 µg/mL | MIC of ceftazidime plus inhibitor [6]: 256/64 | MIC of inhibitor used alone without ceftazidime [6]: >256 µg/mL | MIC of amoxicillin plus inhibitor [7]: 256 µg/mL | MIC of inhibitor used alone without amoxicillin [7]: 256 µg/mL | Ki ([8]; Example 1, read-out: Ki for AmpC): 0.18 ± 0.02 µM | Ki [8, 17]: 0.6 µM | MIC of ceftazidime plus inhibitor [9]: 128/32 | MIC of inhibitor used alone without ceftazidime [9]: >256 µg/mL | MIC of amoxicillin plus inhibitor [9]: 256 µg/mL | MIC of inhibitor used alone without amoxicillin [9]: 256 µg/mL | Ki [10]: > 100 µM

OB(O)c1cc2ccccc2s1 [BZBTH2B, benzo[b]thiophene-2-boronic acid]
MIC of inhibitor used alone without ceftazidime [1]: 512 µg/mL | MIC of ceftazidime plus inhibitor [5]: <0.25 µg/mL | MIC of inhibitor used alone without ceftazidime [5]: 512 µg/mL | MIC of ceftazidime plus inhibitor [6]: 128/32 | MIC of inhibitor used alone without ceftazidime [6]: 512 µg/mL | MIC, agent alone (CAZ alone / BZB only) [11]: 128 | MIC, agent alone (CAZ alone / BZB only) [12]: 128 | MIC, agent alone (CAZ alone / BZB only) [13]: 128 | MIC, agent alone (CAZ alone / BZB only) [14]: 512 | MIC of ceftazidime plus inhibitor [9]: 32/8 | MIC of inhibitor used alone without ceftazidime [9]: 512 µg/mL | MIC, agent alone (CAZ alone / BZB only) [15]: 512 | MIC, agent alone (CAZ alone / BZB only) [16]: 512

C1COB([C@@H]2CCOC2)OCCN1 [DETHFB, diethanolamine-(3R)-(+)-tetrahydrofurnylboronate]
MIC of ceftazidime plus inhibitor [1]: 4/1 | MIC of amoxicillin plus inhibitor [1]: 32 µg/mL | MIC of amoxicillin plus inhibitor [2]: 128 µg/mL | MIC of amoxicillin plus inhibitor [3]: 64 µg/mL | MIC of amoxicillin plus inhibitor [4]: 512 µg/mL | MIC of ceftazidime plus inhibitor [5]: 0.5 µg/mL | MIC of inhibitor used alone without ceftazidime [5]: >512 µg/mL | MIC of inhibitor used alone without amoxicillin [5]: 256 µg/mL | MIC of ceftazidime plus inhibitor [6]: 256/64 | MIC of amoxicillin plus inhibitor [7]: 512 µg/mL | Ki [8, 17]: 1.1 µM | MIC of ceftazidime plus inhibitor [9]: 32/8 | MIC of amoxicillin plus inhibitor [9]: 256 µg/mL | Ki [10, 18]: 27 µM

OB(O)c1cccs1 [TH2B, thiophene-2-boronic acid]
MIC of ceftazidime plus inhibitor [1]: 8/2 | MIC of inhibitor used alone without ceftazidime [1]: 128 µg/mL | MIC of amoxicillin plus inhibitor [1]: 32 µg/mL | MIC of inhibitor used alone without amoxicillin [1]: 128 µg/mL | MIC of amoxicillin plus inhibitor [2]: 64 µg/mL | MIC of inhibitor used alone without amoxicillin [2]: 128 µg/mL | MIC of amoxicillin plus inhibitor [3]: 32 µg/mL | MIC of inhibitor used alone without amoxicillin [3]: 64 µg/mL | MIC of amoxicillin plus inhibitor [4]: 256 µg/mL | MIC of inhibitor used alone without amoxicillin [4]: 128 µg/mL | MIC of ceftazidime plus inhibitor [5]: <0.25 µg/mL | MIC of inhibitor used alone without ceftazidime [5]: 128 µg/mL | MIC of inhibitor used alone without amoxicillin [5]: 64 µg/mL | MIC of ceftazidime plus inhibitor [6]: 128/32 | MIC of inhibitor used alone without ceftazidime [6]: 128 µg/mL | MIC of amoxicillin plus inhibitor [7]: 128 µg/mL | MIC of inhibitor used alone without amoxicillin [7]: 64 µg/mL | MIC of ceftazidime plus inhibitor [9]: 32/8 | MIC of inhibitor used alone without ceftazidime [9]: 256 µg/mL | MIC of amoxicillin plus inhibitor [9]: 64 µg/mL | MIC of inhibitor used alone without amoxicillin [9]: 128 µg/mL | Ki [10]: 31 µM
